Measurements from article PMC7659979, “Discovery and Evaluation of Enantiopure 9H-pyrimido[4,5-b]indoles as Nanomolar GSK-3β Inhibitors with Improved Metabolic Stability” (International Journal of Molecular Sciences, 2020).

Legend:
[1] = tested on: GSK3β activity (phospho-GSK3α/β) in neuronal SH-SY5Y cells; assay: Cellular GSK-3α/β inhibition by western blotting in SH-SY5Y cells; type: cell-based, human; conditions: 1 μM, 1 h of treatment
Experimental: Initially, we determined the concentrations of (R)-28 not associated to neurotoxicity by the MTT assay. Therefore, concentrations of 1 and 5 µM were selected for the assays in SH-SY5Y cells, which were performed according to previously described protocols.
5. Investigation of Cellular GSK-3α/β Inhibition by (R)-28 and Its Neuroprotective Effects
Human neuronal SH-SY5Y cells (Sigma Aldrich, St. Louis, MO, USA) were routinely grown in Dulbecco’s modified Eagle’s Medium supplemented with 10% fetal bovine serum, 2 mM L-glutamine, 50 U/mL penicillin and 50 µg/mL streptomycin at 37 °C in a humidified incubator with […]
SH-SY5Y cells were seeded in a 96-well plate at 2 × 10^4 cells/well, incubated for 24 h and then treated with various concentrations (1.25–40 µM) of (R)-28 for 24 h. Cell viability, in terms of mitochondrial activity, was evaluated by MTT assay, as previously described.
5.3. Neuroprotective Activity toward H 2O2
(§1) SH-SY5Y cells were seeded in a 96-well plate at 2 × 10^4 cells/well, incubated for 24 h and subsequently treated with (R)-28 (5 µM) and H 2O2 (100 µM) for 1 h. Then, cells were starved in complete medium for 22 h. The neuroprotective activity was measured by using the MTT assay as previously described . Data are expressed as a percentage of neurotoxicity versus untreated cells.
5.4. […]

SH-SY5Y cells = assay: Neuroprotective activity toward OAβ1-42 (MTT assay); type: cell-based, human; conditions: 5 μM, concomitant treatment with OAβ1−42 10 μM
Experimental: Next, we investigated the neuroprotective effects of (R)-28 in SH-SY5Y cells against the neurotoxicity induced by neurotoxins. These included hydrogen peroxide (H2O2, 100 μM) and amyloid-β 1–42 oligomers (OAβ1−42, 10 μM), that mimic general oxidative stress and Alzheimer’s disease (AD), respectively. […] Still, these neuroprotective effects against the oxidative stress underline the potential usefulness of inhibitor (R)-28 in the AD therapeutic area.
5. Investigation of Cellular GSK-3α/β Inhibition by (R)-28 and Its Neuroprotective Effects […]
SH-SY5Y cells were seeded in a 96-well plate at 2 × 10^4 cells/well, incubated for 24 h and then treated with various concentrations (1.25–40 µM) of (R)-28 for 24 h. Cell viability, in terms of mitochondrial activity, was evaluated by MTT assay, as previously described. […]
as §1, with “Then, cells were starved in complete medium for 22 h.” left out, “cells. […]” for “cells.”
SH-SY5Y cells were seeded in a 96-well plate at 3 × 10^4 cells/well, incubated for 24 h, and subsequently treated with (R)-28 (5 µM) and OAβ 1-42 (10 µM) for 4 h. The neuroprotective activity was measured by using the MTT assay as previously described. […]

For `CCC(=O)N1CCC[C@@H](N(C)c2ncnc3[nH]c4cc(Br)ccc4c23)C1` [Compound (R)-28, (R)-1-(3-((7-bromo-9H-pyrimido[4,5-b]indol-4-yl)(methyl)amino)piperidin-1-yl)propan-1-one], the “active phospho-GSK3α/β (Tyr279/Tyr216)” value [1] was “decrease”, the “inactive phospho-GSK3α/β (Ser21/9)” value [1] was “increase” and the “neurotoxicity elicited by OAβ1−42” value (SH-SY5Y cells) was “not”.
